This passage reports pC results from ChEMBL document CHEMBL1123744, “A quantitative structure-activity relationship analysis of some 4-aminodiphenyl sulfone antibacterial agents using linear free energy and molecular modeling methods” (J Med Chem, 1987).

This test relates to Mycobacterium lufu. Briefly: In vitro inhibition of Mycobacterium lufu dihydopterate synthase.

`CCNc1ccc(S(=O)(=O)c2ccc(N)cc2)c(O)c1` registered a pC of 6.14.
Next, `CCCNc1ccc(S(=O)(=O)c2ccc(N)cc2)cc1OC`: 5.4.
The figure for `Nc1ccc(S(=O)(=O)c2ccccc2[N+](=O)[O-])cc1` is 5.61; for `Cc1cc(N)ccc1S(=O)(=O)c1ccc(N)cc1` it is 6.19.
For the compound `NNC(=O)c1ccc(S(=O)(=O)c2ccc(N)cc2)cc1`, the pC was found to be 4.9.
The figure for `CCNc1ccc(S(=O)(=O)c2ccc(N)cc2)cc1OC` is 5.49.
Next, `Nc1ccc(S(=O)(=O)c2ccc(Cl)cc2)cc1`: 4.89; `CNc1ccc(S(=O)(=O)c2ccc(N)cc2)cc1`: 5.89; `Nc1ccc(S(=O)(=O)c2ccc(NCC(=O)O)cc2)cc1`: 6.06.
Next, `COC(=O)c1ccc(S(=O)(=O)c2ccc(N)cc2)cc1`: 4.93.
For `Nc1ccc(S(=O)(=O)c2ccc(N)cc2)cc1`, the pC turned out to be 5.92.
Next, `Cc1ccc(S(=O)(=O)c2ccc(N)cc2)cc1`: 5.09.
The figure for `CCCNc1ccc(S(=O)(=O)c2ccc(N)cc2)c(O)c1` is 5.71.
Next, `Nc1ccc(S(=O)(=O)c2ccc(O)cc2)cc1`: 5.82; `Nc1ccc(S(=O)(=O)c2ccc(N)cc2Cl)cc1`: 6.32.
For the compound `Nc1ccc(S(=O)(=O)c2ccccc2)cc1`, the pC amounted to 4.92.
Next, `CCNc1ccc(S(=O)(=O)c2ccc(N)cc2)cc1O`: 5.7; `Nc1ccc(S(=O)(=O)c2ccc(C(=O)O)cc2)cc1`: 5.44; `Nc1ccc(S(=O)(=O)c2ccc(N)c(O)c2)cc1`: 6.07.
Compound `CCNc1ccc(S(=O)(=O)c2ccc(N)cc2)cc1` showed a pC of 5.56.
The figure for `CC(=O)Nc1ccc(S(=O)(=O)c2ccc(N)cc2)cc1` is 5.15.
The figure for `Nc1ccc(S(=O)(=O)c2ccc([N+](=O)[O-])cc2)cc1` is 4.51.
The figure for `CCCNc1ccc(S(=O)(=O)c2ccc(N)cc2)cc1O` is 5.64; for `N#Cc1cc(N)ccc1S(=O)(=O)c1ccc(N)cc1` it is 5.65; for `COc1cc(S(=O)(=O)c2ccc(N)cc2)ccc1N` it is 5.56.
Compound `CN(C)c1ccc(S(=O)(=O)c2ccc(N)cc2)cc1` had a pC of 5.75.
With `Nc1ccc(S(=O)(=O)c2ccc(N)cc2[N+](=O)[O-])cc1`, the pC is 5.87.
The figure for `CCCNc1ccc(S(=O)(=O)c2ccc(N)cc2)c(OC)c1` is 5.92; for `CCNc1ccc(S(=O)(=O)c2ccc(N)cc2)c(OC)c1` it is 5.75; for `Nc1ccc(S(=O)(=O)c2ccccc2N)cc1` it is 5.65.
Take `COc1cc(N)ccc1S(=O)(=O)c1ccc(N)cc1`: the pC is 5.73.
Next, `COC(=O)CNc1ccc(S(=O)(=O)c2ccc(N)cc2)cc1`: 5.65.
The figure for `Nc1ccc(S(=O)(=O)c2ccc(N)cc2N)cc1` is 5.99.
The compound `COc1ccc(S(=O)(=O)c2ccc(N)cc2)cc1` returned a pC of 5.12.
Next, `Nc1ccc(S(=O)(=O)c2ccc([N+](=O)[O-])cc2N)cc1`: 4.93.
Next, `CCCCNc1ccc(S(=O)(=O)c2ccc(N)cc2)c(OC)c1`: 5.99.
